Measured values from patent US20170296611A1, “Pharmaceutical Compositions Comprising Extracts of Sarcopoterium Spinosum, Components Thereof, and Uses Thereof” (Diabest Botanical Drugs Ltd., priority 2009, published 2017).

Columns and labels:
Assay type in all cases: cell-based
3T3-L1 adipocytes = assay: Free fatty acid release (lipolysis) assay in 3T3-L1 adipocytes
Experimental: 3T3-L1 pre-adipocytes were cultured and differentiated as described in references 8 as well as 16, 19, 20 and 21. Briefly, cells were grown to confluence in Dulbecco's Modified Eagle's Medium (DMEM) containing 10% fetal calf serum (FCS), 2 mM glutamine and 1% ampicillin. Two days after full confluence, the cells were induced to differentiate by 3 days incubation in DMEM containing 10% FCS, 0.5 mM isobutylmethylxanthine (IBMX), 1 μM dexamethasone and 100 nM insulin. This was followed by 2 days of incubation in DMEM containing 10% FCS and 100 nM insulin. The cells were grown for an additional 5-9 days in DMEM containing 10% FCS. […] Differentiated adipocytes were preincubated for 12 hours in DMEM containing 2% fatty acid-free bovine serum albumin, in the absence of FCS. Lipolysis was stimulated by treating cells with 10 μM isoproterenol for 1 hour, in the absence or presence of insulin (100 nM) or a composition (S. spinosum extract diluted to 0.001-1% V/V). Free fatty acids (FFA) released into the culture media were measured immediately using a NEFA-C kit, according to the kit instructions. Lipolysis was induced using the adrenergic agonist isoproterenol in order to analyze the extract's effect on lipolysis, and the effect of compositions comprising S. spinosum extract on isoproterenol-induced lipolysis measured, with insulin as a positive control. Differentiated adipocytes (3T3-L1) were treated with insulin (100 nM) or a composition comprising 1% (V/V) S. spinosum extract with or without the addition of isoproterenol (10 μM) for 60 min. Free fatty acid (FFA) concentration was measured […].

[1] = test system: GSK3β ser-9 phosphorylation; assay: GSK3β phosphorylation in L6 myotubes (Western blot / ELISA); conditions: insulin 100 nM, 20 min
Experimental: L6 myoblasts were grown in MEM-α containing 25 mM glucose, 10% FCS, 2 mM glutamine and 1% ampicillin. Experiments were performed on differentiated myotubes. In order to induce differentiation, myoblasts were incubated in MEM-α containing 25 mM glucose and 2% FCS for 4 days, followed by an additional 24 h incubation in a MEM-α starvation medium containing 5 mM glucose and 2% FCS. AML-12, a nontransformed hepatocyte cell line were maintained in DMEM containing 25 mM glucose, 10% FCS, 2 mM glutamine and 1% ampicillin. […] Protein lysates were prepared using cell extraction buffer supplemented with protease and phosphatase inhibitors. The samples were homogenized and centrifuged at 14,000 rpm for 20 min. The supernatant was collected and protein concentration was measured using the Bradford method. 20 μg protein per lane was separated by SDS-polyacrylamide gel electrophoresis. Proteins were electrophoretically transferred onto nitrocellulose membranes. The membranes were blocked in 10% dry milk, incubated with the appropriate antibodies and immunodetected using the enhanced chemiluminescence method. Differentiated L6 myotubes were treated with 100 nM insulin or composition (S. spinosum extract diluted to 0.1% V/V) for 20 min. Protein lysates were prepared using cell extraction buffer. […] GSK-3β phosphorylation was measured using the ELISA detection kit. […]

[2] = test system: AML12 hepatocyte cell line; assay: [3H]2-deoxy-D-glucose uptake in hepatocytes; conditions: insulin 100 nM
Experimental: (§1) L6 myoblasts were grown in MEM-α containing 25 mM glucose, 10% FCS, 2 mM glutamine and 1% ampicillin. Experiments were performed on differentiated myotubes. In order to induce differentiation, myoblasts were incubated in MEM-α containing 25 mM glucose and 2% FCS for 4 days, followed by an additional 24 h incubation in a MEM-α starvation medium containing 5 mM glucose and 2% FCS. AML-12, a nontransformed hepatocyte cell line were maintained in DMEM containing 25 mM glucose, 10% FCS, 2 mM glutamine and 1% ampicillin. Differentiated adipocytes, L6 myoblasts and AML12 cells were each preincubated for 6 hours in low glucose (4.5 mM), serum-free DMEM containing 1% BSA, and then treated with either 100 nM insulin or compositions comprising different concentrations of S. spinosum extract (0.001-1% V/V). Glucose uptake was measured in triplicate samples in six-well plates using [^3H]2-deoxy-D-glucose (1 mCi/ml; American Radiolabeled Chemicals, St. Louis, Mo., USA). […] Samples were counted in the ^3H window of a Tricarb scintillation counter. […] The effect of S. spinosum compositions on glucose uptake was measured in the AML12 hepatocyte cell line, L6 skeletal myoblasts and in differentiated 3T3-L1 adipocytes, and compared to the effect of insulin. […] The uptake of [^3H]2-deoxy-D-glucose into cells was determined as described in the Materials and Methods section.

L6 myoblasts = assay: [3H]2-deoxy-D-glucose uptake in L6 myoblasts; conditions: insulin 100 nM
Experimental: as §1

[3] = test system: differentiated 3T3-L1 adipocytes; assay: [3H]2-deoxy-D-glucose uptake in 3T3-L1 adipocytes; conditions: insulin 100 nM
Experimental: 3T3-L1 pre-adipocytes were cultured and differentiated as described in references 8 as well as 16, 19, 20 and 21. Briefly, cells were grown to confluence in Dulbecco's Modified Eagle's Medium (DMEM) containing 10% fetal calf serum (FCS), 2 mM glutamine and 1% ampicillin. Two days after full confluence, the cells were induced to differentiate by 3 days incubation in DMEM containing 10% FCS, 0.5 mM isobutylmethylxanthine (IBMX), 1 μM dexamethasone and 100 nM insulin. This was followed by 2 days of incubation in DMEM containing 10% FCS and 100 nM insulin. The cells were grown for an additional 5-9 days in DMEM containing 10% FCS. […] Glucose uptake was measured in triplicate samples in six-well plates using [^3H]2-deoxy-D-glucose (1 mCi/ml; American Radiolabeled Chemicals, St. Louis, Mo., USA). […] Samples were counted in the ^3H window of a Tricarb scintillation counter. […] The effect of S. spinosum compositions on glucose uptake was measured in the AML12 hepatocyte cell line, L6 skeletal myoblasts and in differentiated 3T3-L1 adipocytes, and compared to the effect of insulin. […] The uptake of [^3H]2-deoxy-D-glucose into cells was determined as described in the Materials and Methods section.

Compound	free fatty acid release (lipolysis) (3T3-L1 adipocytes; isoproterenol 10 μM for one hour alone) [mM FFA/mg protein]	increase in GSK3β ser-9 phosphorylation compared to the control [1] [fold]	isoproterenol-induced free fatty acid release (3T3-L1 adipocytes; isoproterenol 10 μM, 60 min, insulin 100 nM) [mM FFA/mg protein]	free fatty acid release (3T3-L1 adipocytes; unstimulated adipocytes (no isoproterenol))	increase in glucose uptake [2] [%]	increase in glucose uptake (L6 myoblasts) [%]	increase in glucose uptake [3] [%]
CC(C)NCC(O)c1ccc(O)c(O)c1 (stereo not shown) [isoproterenol, Isoproterenol, reference compound]	4.23±3.01	–	–	–	–	–	–
insulin	–	4	0.47±0.16	not affected	160±12	146±11.26	167±13
